{
  "source": "patent US20240065994A1",
  "about": "“COMPOSITIONS AND METHODS FOR PREVENTING OR TREATING DISEASES OR DISORDERS ASSOCIATED WITH PROTEIN MISFOLDING” (priority 2020, published 2024)",
  "key": {"[1]": {"experiment": "Effect of BSO on body weight", "assay_type": "in vivo, mice", "settings": "15 mM BSO in drinking water for eight weeks, weighed weekly", "text": "(§1) Animals: C57BL/6-Ins2^Akita/J (Akita) are an excellent model for Mutant-insulin Diabetes of Youth. Akita mice suffer from diabetes due to misfolded proinsulin, as the gene that codes for proinsulin (Ins2) is mutated. […] One male Akita mice was bred to female mice and the progeny were back-crossed to obtain enough number of heterozygous and wild-type male mice. The genotype of the mice was confirmed by using methods described previously. Briefly, the polymerase chain reaction product of the amplicons from the mutated region of the Ins 2 gene were subjected to restriction enzyme digestion and the products of the digestion were separated in agarose gels. Based on the number of fragments that resulted from the digestion, the genotypes of mice were confirmed. Only heterozygous male mice were used in the experiments. After two rounds of breeding, 12 heterozygous Akita and 12 wild-type Akita mice. After reaching 15-weeks of age, mice in each genotype were randomized into two groups of 6 animals each (n=6/group). All mice were given either 0 mM or 15 mM of D,L-Buthionine-(S,R)-sulfoximine (BSO, Toronto Research Chemicals Inc., ON, CA) administered in drinking water. […]\nExperiment 1. […] Body weight was monitored every week.\n(§2) Body weight (see FIG. 1) and food consumption (see FIG. 2) was monitored weekly. […]"}, "[2]": {"experiment": "Effect of BSO on food intake", "assay_type": "in vivo, mice", "settings": "15 mM BSO in drinking water for eight weeks, measured weekly", "text": "as §1\nExperiment 2. […] Food intake was measured every week.\nas §2"}, "glutathione": {"system": "glutathione", "experiment": "Effect of BSO on blood glutathione concentration", "assay_type": "in vivo, mice", "settings": "after eight weeks on 15 mM BSO", "text": "Animals: C57BL/6-Ins2^Akita/J (Akita) are an excellent model for Mutant-insulin Diabetes of Youth. Akita mice suffer from diabetes due to misfolded proinsulin, as the gene that codes for proinsulin (Ins2) is mutated. […] One male Akita mice was bred to female mice and the progeny were back-crossed to obtain enough number of heterozygous and wild-type male mice. The genotype of the mice was confirmed by using methods described previously. Briefly, the polymerase chain reaction product of the amplicons from the mutated region of the Ins 2 gene were subjected to restriction enzyme digestion and the products of the digestion were separated in agarose gels. Based on the number of fragments that resulted from the digestion, the genotypes of mice were confirmed. Only heterozygous male mice were used in the experiments. After two rounds of breeding, 12 heterozygous Akita and 12 wild-type Akita mice. After reaching 15-weeks of age, mice in each genotype were randomized into two groups of 6 animals each (n=6/group). […] Glutathione was determined as described in experimental methods section. […] Glutathione was determined by a colorimetric method based on an enzymatic recycling method using 5,5′-dithiobis-(2-nitrobenzoic acid) as described earlier (Teitze et al). Using a standard curve with known concentrations the glutathione concentrations were determined and expressed as μg/mL blood."}, "Akita mice": {"system": "Akita mice", "experiment": "Effect of BSO on fasting glucose", "assay_type": "in vivo", "settings": "15 mM BSO in drinking water, measured before and 1, 3, 4, 7, 8 weeks after, persisted throughout the study", "text": "Experimentation was done with Akita mice, which harbor a similar mutation in the proinsulin gene as human patients with MIDY, are used as a laboratory model for MIDY. […] The Akita strain is a monogenic model for phenotypes associated with type 1 diabetes. A spontaneous mutation in the insulin 2 gene leads to incorrect folding of the proinsulin protein producing toxicity in pancreatic beta-cells, reduced beta-cell mass and reduced insulin secretion. As a result, Akita mice suffer with glucose levels that are two to four-fold higher than healthy mice. […] Animals: C57BL/6-Ins2^Akita/J (Akita) are an excellent model for Mutant-insulin Diabetes of Youth. Akita mice suffer from diabetes due to misfolded proinsulin, as the gene that codes for proinsulin (Ins2) is mutated. […] One male Akita mice was bred to female mice and the progeny were back-crossed to obtain enough number of heterozygous and wild-type male mice. The genotype of the mice was confirmed by using methods described previously. […] Fasting glucose was determined using AlphaTrak-2 glucometer. […] Fasting (6 hr) blood glucose was determined from tail clips before starting the mice on BSO and 1, 3, 4, 7, and 8 weeks after treating with BSO. […]"}, "Wild-type and Akita mice [3]": {"system": "Wild-type and Akita mice", "experiment": "Glucose tolerance test (GTT)", "assay_type": "in vivo", "settings": "15 mM BSO, fifth week, 0.85 g/Kg D-glucose i.p., 6 h fast", "text": "(§3) Animals: C57BL/6-Ins2^Akita/J (Akita) are an excellent model for Mutant-insulin Diabetes of Youth. Akita mice suffer from diabetes due to misfolded proinsulin, as the gene that codes for proinsulin (Ins2) is mutated. […] One male Akita mice was bred to female mice and the progeny were back-crossed to obtain enough number of heterozygous and wild-type male mice. The genotype of the mice was confirmed by using methods described previously. Briefly, the polymerase chain reaction product of the amplicons from the mutated region of the Ins 2 gene were subjected to restriction enzyme digestion and the products of the digestion were separated in agarose gels. Based on the number of fragments that resulted from the digestion, the genotypes of mice were confirmed. Only heterozygous male mice were used in the experiments. After two rounds of breeding, 12 heterozygous Akita and 12 wild-type Akita mice. […] Body weight (see FIG. 1) and food consumption (see FIG. 2) was monitored weekly. […] Mice were intraperitoneally injected with 0.85 g/Kg body weight D-glucose and blood glucose was determined at specified intervals. […] Blood glucose was measured from tail clips using AlphaTrak-2 (Parsipanny, NJ,) glucometer and compatible strips. Blood glucose was measured at 0, 5, 15, 30, 60, 90, 120, 150, 180, and 210 min after injection. […]"}, "Wild-type and Akita mice [4]": {"system": "Wild-type and Akita mice", "experiment": "Insulin tolerance test (ITT)", "assay_type": "in vivo", "settings": "15 mM BSO, third week, 1 U/Kg insulin i.p., 6 h fast", "text": "as §3, with “1 U/Kg” for “0.85 g/Kg”, “of insulin” for “D-glucose”"}},
  "data": [
    {"smiles": "CCCCS(=N)(=O)CC[C@H](N)C(=O)O", "note": "(mixture of isomers) [BSO, D,L-Buthionine-(S,R)-sulfoximine]", "values": [
      {"measurement": "effect on body weight", "setting": "[1]; Akita mice", "value": "lack of the effect"},
      {"measurement": "effect on body weight", "setting": "[1]; wild-type mice", "value": "lack of the effect"},
      {"measurement": "effect on food intake", "setting": "[2]; Akita mice", "value": "does not affect"},
      {"measurement": "effect on food intake", "setting": "[2]; wild-type mice", "value": "does not affect"},
      {"measurement": "effect on blood glutathione concentration", "setting": "glutathione; Akita mice", "value": "decreased"},
      {"measurement": "effect on blood glutathione concentration", "setting": "glutathione; wild-type mice", "value": "decreased"},
      {"measurement": "effect on fasting (6 hr) blood glucose", "setting": "Akita mice", "value": "Decrease in glucose levels in Akita was evident within one week"},
      {"measurement": "glucose tolerance area under the curve decreased to", "setting": "Wild-type and Akita mice [3]; Akita mice, baseline subtracted", "value": "less than 50%"},
      {"measurement": "effect on glucose tolerance area under the curve", "setting": "Wild-type and Akita mice [3]; wild-type mice", "value": "did affect"},
      {"measurement": "effect on insulin tolerance area under the curve", "setting": "Wild-type and Akita mice [4]; Akita mice", "value": "No effect"},
      {"measurement": "effect on insulin tolerance area under the curve", "setting": "Wild-type and Akita mice [4]; wild-type mice", "value": "No effect"}
    ]}
  ]
}
